Patent EP4623702A1, “ORAL PRODUCT” (Nicoventures Trading Limited, priority 2024, dated 2025)
pEC50: −log10 of the molar value. Like-named read-outs stand apart in the source and are kept apart here.

Tests used:
[1] = biological target: P-gp (MDR1, ABCB1), human (Homo sapiens, UniProt P08183); assay: in vitro; settings: dog, MDCK-MDR1, pH 7.4
[2] = biological target: T1, MDCK-MDR1 cell line heterologously expressing the human P-gp transporter (MDR1) (Homo sapiens, UniProt P08183); settings: for effect of quercetin on BBB permeability of the compound: MDCK-MDR1
T1 sequence (P08183 whole entry): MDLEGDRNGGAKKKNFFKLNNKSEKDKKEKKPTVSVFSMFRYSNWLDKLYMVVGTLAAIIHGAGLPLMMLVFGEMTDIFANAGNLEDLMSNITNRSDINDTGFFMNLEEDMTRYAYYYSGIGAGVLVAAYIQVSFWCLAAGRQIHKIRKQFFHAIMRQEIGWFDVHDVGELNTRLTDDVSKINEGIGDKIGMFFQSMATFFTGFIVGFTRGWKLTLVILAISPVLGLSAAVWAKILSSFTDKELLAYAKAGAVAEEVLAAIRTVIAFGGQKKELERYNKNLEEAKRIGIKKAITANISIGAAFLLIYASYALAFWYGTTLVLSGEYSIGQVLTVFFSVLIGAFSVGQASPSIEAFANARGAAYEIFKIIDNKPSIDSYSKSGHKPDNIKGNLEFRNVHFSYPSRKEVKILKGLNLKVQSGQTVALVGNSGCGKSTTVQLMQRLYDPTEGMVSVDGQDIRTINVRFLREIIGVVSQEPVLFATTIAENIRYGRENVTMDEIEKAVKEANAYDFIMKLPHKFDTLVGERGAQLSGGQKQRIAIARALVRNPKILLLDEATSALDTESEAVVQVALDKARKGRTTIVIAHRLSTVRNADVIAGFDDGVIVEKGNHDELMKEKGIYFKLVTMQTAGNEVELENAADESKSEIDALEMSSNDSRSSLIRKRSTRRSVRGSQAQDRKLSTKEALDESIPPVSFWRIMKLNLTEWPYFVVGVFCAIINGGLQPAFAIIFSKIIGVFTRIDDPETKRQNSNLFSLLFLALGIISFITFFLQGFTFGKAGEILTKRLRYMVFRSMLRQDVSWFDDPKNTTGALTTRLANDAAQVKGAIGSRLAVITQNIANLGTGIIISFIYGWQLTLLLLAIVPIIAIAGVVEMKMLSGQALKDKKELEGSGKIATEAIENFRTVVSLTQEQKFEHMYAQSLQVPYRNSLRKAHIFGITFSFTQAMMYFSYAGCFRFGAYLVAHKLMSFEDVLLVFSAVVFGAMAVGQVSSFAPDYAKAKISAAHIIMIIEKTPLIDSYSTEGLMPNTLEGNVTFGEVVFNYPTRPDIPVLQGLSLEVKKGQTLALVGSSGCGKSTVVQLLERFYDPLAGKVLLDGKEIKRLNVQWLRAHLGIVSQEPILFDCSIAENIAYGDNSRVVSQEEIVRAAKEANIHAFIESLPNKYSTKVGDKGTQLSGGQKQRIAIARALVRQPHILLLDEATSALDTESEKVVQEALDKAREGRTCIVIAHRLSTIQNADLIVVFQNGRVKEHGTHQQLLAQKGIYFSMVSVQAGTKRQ

[3] = biological target: T1, MDCK-MDR1 cell line heterologously expressing the human P-gp transporter (MDR1); assay: in vitro; settings: dog, MDCK-MDR1, pH 7.4
[4] = biological target: T1, MDCK-MDR1 cell line heterologously expressing the human P-gp transporter (MDR1); assay: MDCK-MDR1 permeability assay (in vitro model for BBB permeation, P-gp substrate identification, with/without inhibitors); settings: Compound Alone; apical to basolateral; 1 or 10 µM, 60 minutes, pH 7.4 (Table 2)
p-glycoprotein = p-glycoprotein (Homo sapiens, UniProt P08183); settings: value stated as basis for the 30 µM inhibitor concentration; no source given; cited from earlier work
Sequence of p-glycoprotein (P08183 whole entry): as above

Sequence of P-gp (MDR1, ABCB1), human (P08183 whole entry): as above

| Compound | Papp A→B at 60 min [1] | Papp B→A at 60 min [1] | Papp at 60 min [1] | A2B Apparent permeability (Papp) ([2]; dog, MDCK-MDR1, 60 min, pH 7.4) | Papp A→B at 1 h [3] | Papp B→A at 1 h [3] | A2B Apparent permeability (Papp) ([2]; MDCK-MDR1, pH 7.4) | B2A Apparent permeability (Papp) ([2]; MDCK-MDR1, pH 7.4) | also measured |
| --- | --- | --- | --- | --- | --- | --- | --- | --- | --- |
| O=C(O)[C@H]1O[C@@H](Oc2cc(O)c3c(=O)cc(-c4ccc(O)c(O)c4)oc3c2)[C@H](O)[C@@H](O)[C@@H]1O [Luteolin-7-glucoronide, Luteolin 7-glucuronide] |  |  |  |  | 0.205 ×10⁻⁶ cm/s | 0.076 ×10⁻⁶ cm/s | 0.175 ×10⁻⁶ cm/s | 0.134 ×10⁻⁶ cm/s |  |
| O=C(/C=C/C=C/c1ccc2c(c1)OCO2)N1CCCCC1 [Piperine, (2E,4E)-5-(2H-1,3-benzodioxol-5-yl)-1-(piperidin-1-yl)-penta-2,4-dien-1-one] |  |  |  |  |  |  |  |  | pEC50 (p-glycoprotein): 4.52 |
| CC1=C(C=O)C(C)(C)CC=C1 [Safranal] |  |  |  |  | 90 ×10⁻⁶ cm/s | 43.3 ×10⁻⁶ cm/s |  |  |  |
| CC1=C(C)C(=O)O[C@@H]([C@](C)(O)[C@H]2CC[C@H]3[C@@H]4[C@@H]5O[C@@H]5[C@@]5(O)CC=CC(=O)[C@]5(C)[C@H]4CC[C@]23C)C1 [Withanolide A] |  |  |  |  | 3.65 ×10⁻⁶ cm/s | 22.2 ×10⁻⁶ cm/s | 17.3 ×10⁻⁶ cm/s | 20 ×10⁻⁶ cm/s | effect of quercetin on BBB permeability of the compound [2]: did not, for instance, significantly enhance |
| CC1=C(C)C(=O)O[C@@H]([C@@H](C)[C@H]2CC[C@H]3[C@@H]4[C@@H]5O[C@@H]5[C@@]5(O)CC=CC(=O)[C@]5(C)[C@H]4CC[C@]23C)C1 [Withanolide B] |  |  |  |  | 12 ×10⁻⁶ cm/s | 13.3 ×10⁻⁶ cm/s | 13.5 ×10⁻⁶ cm/s | 11.6 ×10⁻⁶ cm/s |  |
| CC1=C(C)C(=O)O[C@@H]([C@@H](C)[C@@]2(O)CC[C@H]3[C@@H]4[C@@H]5O[C@@H]5[C@@]5(O)CC=CC(=O)[C@]5(C)[C@H]4CC[C@@]32C)C1 [Withanone] |  |  |  |  |  |  |  |  | Papp A→B [1]: 1.23 ×10⁻⁶ cm/s; Papp B→A [1]: 31.6 ×10⁻⁶ cm/s; effect of quercetin on BBB permeability of the compound [2]: did not, for instance, significantly enhance; B2A Apparent permeability (Papp) ([2]; dog, MDCK-MDR1, pH 7.4): 19.7 ×10⁻⁶ cm/s |

Further lines, with some results ahead:

| Papp A→B at 60 min [1] | Papp B→A at 60 min [1] | Papp at 60 min [1] | A2B Apparent permeability (Papp) ([2]; dog, MDCK-MDR1, 60 min, pH 7.4) | Compound | Papp A→B at 1 h [3] | Papp B→A at 1 h [3] | A2B Apparent permeability (Papp) ([2]; MDCK-MDR1, pH 7.4) | B2A Apparent permeability (Papp) ([2]; MDCK-MDR1, pH 7.4) | also measured |
| --- | --- | --- | --- | --- | --- | --- | --- | --- | --- |
| 9.71 ×10⁻⁶ cm/s | 19.1 ×10⁻⁶ cm/s | 1 to 10 ×10⁻⁶ cm/s | 9.71 ×10⁻⁶ cm/s | O=c1cc(-c2ccc(O)cc2)oc2cc(O)cc(O)c12 [Apigenin] |  |  |  |  |  |
| 1.67 ×10⁻⁶ cm/s | 5.84 ×10⁻⁶ cm/s | 1 to 10 ×10⁻⁶ cm/s | 1.67 ×10⁻⁶ cm/s | CC(/C=C/C=C(\C)C(=O)O)=C\C=C\C=C(C)\C=C\C=C(/C)C(=O)O [Crocetin] |  |  |  |  |  |
| 0.22 ×10⁻⁶ cm/s | 3.12 ×10⁻⁶ cm/s | < 1 ×10⁻⁶ cm/s | 0.22 ×10⁻⁶ cm/s | CC(/C=C/C=C(\C)C(=O)O[C@@H]1O[C@H](CO[C@@H]2O[C@H](CO)[C@@H](O)[C@H](O)[C@H]2O)[C@@H](O)[C@H](O)[C@H]1O)=C\C=C\C=C(C)\C=C\C=C(/C)C(=O)O[C@@H]1O[C@H](CO[C@@H]2O[C@H](CO)[C@@H](O)[C@H](O)[C@H]2O)[C@@H](O)[C@H](O)[C@H]1O [Crocin] |  |  |  |  |  |
| 0.174 ×10⁻⁶ cm/s | 0.35 ×10⁻⁶ cm/s | < 1 ×10⁻⁶ cm/s |  | CC1(C)CC[C@]2(C(=O)O)CC[C@]3(C)C(=CC[C@@H]4[C@@]5(C)CC[C@H](O)C(C)(C)[C@@H]5CC[C@]43C)[C@@H]2C1 [Oleanoic acid, Oleanolic acid] |  |  |  |  | A2B Apparent permeability (Papp) [4]: 0.174 ×10⁻⁶ cm/s |
